Measured values published in publication PMC10706865, “Repurposing Study of 4-Acyl-1-phenylaminocarbonyl-2-substituted-piperazine Derivatives as Potential Anticancer Agents—In Vitro Evaluation against Breast Cancer Cells” (International Journal of Molecular Sciences, 2023).
Where “and” joins values, the source holds several entries; their conditions need not be identical. Identical values can stand only once. Like-named read-outs stand apart in the source and are kept apart here.

Key:
[1] = system: MCF 10A human normal breast cells; experiment: MTT cell viability assay, MCF 10A normal breast cells; type: cell-based
Protocol: (§1) To evaluate the cytotoxicity of our compounds against cancer cells, they were evaluated in vitro against MCF7 human breast cancer cells. To examine the selectivity of our compounds, they were also studied against MCF 10A human normal cells. Both cell lines were exposed to different concentrations of our compounds for 72 h before measuring cell viability with the 3-(4,5-dimethylthiazol-2-yl)-2,5-diphenyltetrazolium bromide (MTT) assay (for conditions of the MTT assay, see the Experimental Part, Section 3). Docetaxel, an anticancer drug used in clinics, was tested under the same experimental conditions. Data were obtained from at least two independent experiments and were expressed as means ± standard error of means (SEM). The half-maximal inhibitory concentration (IC50) value of each compound was calculated, and the results are collected in Table 2. To evaluate the selective activity of our compounds, the selectivity index (SI) was also calculated. The curves of cell viability of MCF7 cancer cells and MCF 10A normal cells after the treatment with our compounds are shown (Figure 5, Figure 6, Figure 7, Figure 8 and Figure 9 and Figures S1–S4).
(§2) Exponentially growing cells were seeded into 96-well plates, and drugs were added 24 h later. Each compound was dissolved with DMSO (Panreac Applichem) to prepare a stock solution (100 mM). The working solutions of specific concentrations were prepared via the dilution of the stock solutions in the culture medium and were immediately used to treat the cells. The remaining stock solutions were aliquoted and frozen at −40 °C. We used different aliquots in each independent experiment to avoid the freeze–thaw cycles. Cells were exposed to the drugs for 72 h. After these 72 h, cell viability was determined with the MTT assay or the resazurin assay. These assays are colorimetric techniques that are widely used to determine cell viability.
(§3) The MTT assay is based on the capability of viable cells to transform the MTT salt into a purple formazan dye. After an incubation period of the cells with the MTT and a solubilization step, the quantity of the colored product is measured with a plate reading spectrophotometer. […] The quantity of formazan produced is presumably proportional to the number of viable cells. After seeding for 24 h, cells were treated with the tested drugs for 72 h. Then, medium was removed, and 125 μL of MTT (1 mg/mL in medium) was added to each well for 3–4 h. Subsequently, 80 μL of 20% sodium dodecyl sulfate (Panreac Applichem) in 20 mM hydrochloric acid (Panreac Applichem) was added to dissolve the insoluble purple formazan product, plates were incubated for 10 h at 37 °C, and optical densities were measured at 540 nm on a multiwell plate spectrophotometer reader.
(§4) In both assays, cell viability was expressed as percentage in relation to controls. All data were averaged from at least two independent experiments and were expressed as mean ± standard error of the mean (SEM). Selectivity indices (SI) were calculated by dividing the IC50 values in the nonmalignant cells by those in the cancer cells.

[2] = system: MCF7 human breast cancer cells; experiment: MTT cell viability assay, MCF7 breast cancer cells; type: cell-based; details: for IC50: MTT assay; for Selectivity Index: IC50 MCF 10A divided by IC50 MCF7, 72 h, MTT
Protocol: as §1, §2, §3, §4

[3] = 72 h exposure, read-out: IC50 (Mean ± SEM; μM) MCF 10A (Normal)
[4] = Homo sapiens, MCF7, 72 h, 72 h exposure, read-out: IC50 (Mean ± SEM; μM) MCF7 (Cancer)
[5] = 72 h exposure, read-out: IC50 (Mean ± SEM; μM) MCF7 (Cancer)

Structure (SMILES)	IC50 [1, 3] [µM]	IC50 [2, 4] [µM]	Selectivity Index [2]	IC50 [2, 5] [µM]	IC50 ([1]; docetaxel line in nM, 72 h, read-out: IC50 (Mean ± SEM) MCF 10A (Normal)) [µM]	IC50 ([2]; Homo sapiens, MCF7, 72 h, docetaxel line in nM, 72 h, read-out: IC50 (Mean ± SEM) MCF7 (Cancer)) [µM]
CC1CN(C(=O)C(C)(C)C)CCN1C(=O)Nc1ccc([N+](=O)[O-])cc1 (stereo not drawn) [Compound 7]	38.5 ± 4.6	60.8 ± 1.2	0.6 ± 0.1	–	–	–
COc1ccc(NC(=O)N2CCN(C(=O)C(C)(C)C)CC2C)cc1 (stereo not drawn) [Compound 8]	541 ± 259	118 ± 48.7	5.2 ± 3.1	–	–	–
CC1CN(C(=O)C(C)(C)C)CCN1C(=S)Nc1ccc([N+](=O)[O-])cc1 (stereo not drawn) [Compound 9]	58.2 ± 18.3	< 20	4.2 ± 1.0	15.8 ± 8.2	–	–
CC1CN(C(=O)c2ccccc2)CCN1C(=O)Nc1ccc([N+](=O)[O-])cc1 (stereo not drawn) [Compound 10]	34.1 ± 1.7	26.7 ± 3.3	1.3 ± 0.1	–	–	–
COc1ccc(NC(=O)N2CCN(C(=O)c3ccccc3)CC2C)cc1 (stereo not drawn) [Compound 11]	478 ± 35.6	359 ± 74.7	1.4 ± 0.4	–	–	–
CC1CN(C(=O)OC(C)(C)C)CCN1C(=O)Nc1ccc([N+](=O)[O-])cc1 (stereo not drawn) [Compound 12]	84.2 ± 12.4	34.6 ± 4.8	2.4 ± 0.0	–	–	–
COc1ccc(NC(=O)N2CCN(C(=O)OC(C)(C)C)CC2C)cc1 (stereo not drawn) [Compound 13]	915 ± 226	250 ± 19.4	3.6 ± 0.6	–	–	–
CC1CN(C(=O)OC(C)(C)C)CCN1C(=S)Nc1ccc([N+](=O)[O-])cc1 (stereo not drawn) [Compound 14]	35.6 ± 4.5	34.2 ± 0.1	1.0 ± 0.1	–	–	–
CC1CN(C(=O)OC(C)(C)C)CCN1C(=O)Nc1ccc(Cl)cc1 (stereo not drawn) [Compound 15]	170 ± 61.6	43.4 ± 3.7	3.8 ± 1.1	–	–	–
CC1CN(C(=O)OC(C)(C)C)CCN1C(=O)Nc1ccc(C(F)(F)F)cc1 (stereo not drawn) [Compound 16]	60.1 ± 19.8	31.3 ± 3.6	1.9 ± 0.4	–	–	–
CC1CN(C(=O)OC(C)(C)C)CCN1C(=O)Nc1ccc(C(F)(F)F)c(Cl)c1 (stereo not drawn) [Compound 17]	41.7 ± 4.1	22.7 ± 1.6	1.9 ± 0.2	–	–	–
CC1CN(C(=O)c2cc3ccccc3o2)CCN1C(=O)Nc1ccc([N+](=O)[O-])cc1 (stereo not drawn) [Compound 18]	30.4 ± 1.8	< 20	2.5 ± 0.2	12.1 ± 0.6	–	–
CC1CN(C(=O)c2cc3ccccc3o2)CCN1C(=O)Nc1ccc(Cl)cc1 (stereo not drawn) [Compound 19]	261 ± 2.6	30.5 ± 1.1	–	–	–	–
CC1CN(C(=O)c2cc3ccccc3o2)CCN1C(=O)Nc1ccc(C(F)(F)F)cc1 (stereo not drawn) [Compound 20]	244 ± 8.2	31.7 ± 4.1	–	–	–	–
CC1CN(C(=O)c2cc3ccccc3o2)CCN1C(=O)Nc1ccc(C#N)cc1 (stereo not drawn) [Compound 21]	31.2 ± 2.8	< 20	1.6 ± 0.2	19.4 ± 3.8	–	–
CC1CN(C(=O)c2cc3ccccc3o2)CCN1C(=O)Nc1ccccc1[N+](=O)[O-] (stereo not drawn) [Compound 22]	32.4 ± 1.9	28.1 ± 1.2	1.2 ± 0.1	–	–	–

Structure (SMILES)	IC50 [1, 3] [µM]	IC50 [2, 4] [µM]	Selectivity Index [2]	IC50 [2, 5] [µM]	IC50 ([1]; docetaxel line in nM, 72 h, read-out: IC50 (Mean ± SEM) MCF 10A (Normal)) [µM]	IC50 ([2]; Homo sapiens, MCF7, 72 h, docetaxel line in nM, 72 h, read-out: IC50 (Mean ± SEM) MCF7 (Cancer)) [µM]
COc1ccccc1NC(=O)N1CCN(C(=O)c2cc3ccccc3o2)CC1C (stereo not drawn) [Compound 23]	74.7 ± 30.2	31.4 ± 5.5	2.3 ± 0.6	–	–	–
CC1CN(C(=O)c2cc3ccccc3o2)CCN1C(=O)Nc1ccccc1Br (stereo not drawn) [Compound 24]	33.5 ± 3.5	25.3 ± 1.6	1.3 ± 0.1	–	–	–
CC1CN(C(=O)c2cc3ccccc3o2)CCN1C(=O)Nc1ccccc1 (stereo not drawn) [Compound 25]	161 ± 64.6	48.5 ± 10.1	3.2 ± 0.7	–	–	–
CC(C)(C)OC(=O)N1CCN(C(=O)Nc2ccc([N+](=O)[O-])cc2)C(c2ccccc2)C1 (stereo not drawn) [Compound 26]	71.3 ± 3.6	–	15.2 ± 11.1	–	–	–
CC(C)(C)OC(=O)N1CCN(C(=O)Nc2ccc(Cl)cc2)C(c2ccccc2)C1 (stereo not drawn) [Compound 27]	33.8 ± 6	< 20	2.2 ± 0.9	16.8 ± 4	–	–
CC(C)(C)OC(=O)N1CCN(C(=O)Nc2ccc(C#N)cc2)C(c2ccccc2)C1 (stereo not drawn) [Compound 28]	55.2 ± 24.4	< 20	2.7 ± 0.8	19.5 ± 3.5	–	–
CC(C)(C)OC(=O)N1CCN(C(=O)Nc2ccc(F)cc2)C(c2ccccc2)C1 (stereo not drawn) [Compound 29]	56.3 ± 16.5	24.8 ± 1.7	2.2 ± 0.5	–	–	–
CC(C)(C)OC(=O)N1CCN(C(=O)Nc2ccccc2[N+](=O)[O-])C(c2ccccc2)C1 (stereo not drawn) [Compound 30]	63.2 ± 10.9	24.3 ± 3.4	2.6 ± 0.1	–	–	–
COc1ccc(NC(=O)N2CCN(C(=O)OC(C)(C)C)CC2c2ccccc2)cc1 (stereo not drawn) [Compound 33]	325 ± 27.6	130 ± 31.4	2.6 ± 0.4	–	–	–
Cc1ccc(NC(=O)N2CCN(C(=O)OC(C)(C)C)CC2c2ccccc2)cc1 (stereo not drawn) [Compound 34]	68.7 ± 2.8	24.4 ± 3.1	2.9 ± 0.5	–	–	–
O=C(c1cc2ccccc2o1)N1CCN(C(=O)Nc2ccc(Cl)cc2)C(c2ccccc2)C1 (stereo not drawn) [Compound 36]	161 ± 16.5	41.3 ± 4.2	4.0 ± 0.9	–	–	–
O=C(c1cc2ccccc2o1)N1CCN(C(=O)Nc2cc(C(F)(F)F)ccc2Cl)C(c2ccccc2)C1 (stereo not drawn) [Compound 38]	117 ± 21.1	91.9 ± 35.7	1.4 ± 0.3	–	–	–
O=C(c1cc2ccccc2o1)N1CCN(C(=O)Nc2ccccc2[N+](=O)[O-])C(c2ccccc2)C1 (stereo not drawn) [Compound 39]	> 1000	226 ± 175	>2.5	–	–	–
CC1CN(C(=O)c2cc3ccccc3o2)CCN1C(=O)NC12CC3CC(CC(C3)C1)C2 (stereo not drawn) [Compound 41, 4-(Benzofuran-2-carbonyl)-2-methyl-1-[(1-adamantyl)aminocarbonyl]piperazine]	103 ± 66.9	17.7 ± 5	5.1 ± 2.3 and ~ 5	< 20	–	–
CC(=O)O[C@@]12CO[C@@H]1C[C@H](O)[C@@]1(C)C(=O)[C@H](O)C3=C(C)[C@@H](OC(=O)[C@H](O)[C@@H](NC(=O)OC(C)(C)C)c4ccccc4)C[C@@](O)([C@@H](OC(=O)c4ccccc4)[C@H]21)C3(C)C [Docetaxel, reference compound]	–	–	˂1	–	< 0.001	0.0761 ± 0.0262
